The source made the active and inactive calls. No cut-off for these calls is given here.
Experiments:
[1] = test system: K562; experiment: Induction of cell cycle arrest in human K562 cells assessed as accumulation at G2/M phase at 0.25 uM after 6 hrs by propidium iodide staining-based FACS analysis; type: functional
[2] = test system: K562; experiment: Induction of cell cycle arrest in human K562 cells assessed as complete arrest at G2/M phase at 0.25 uM after 12 hrs by propidium iodide staining-based FACS analysis; type: functional
[3] = test system: K562; experiment: Induction of apoptosis in human K562 cells assessed as chromatin condensation at 0.25 uM after 24 to 48 hrs by TUNEL assay; type: functional, cell-based
[4] = test system: K562; experiment: Induction of apoptosis in human K562 cells assessed as appearance of apoptotic bodies at 0.25 uM after 24 to 48 hrs by TUNEL assay; type: functional, cell-based
[5] = test system: K562; experiment: Cell cycle arrest in human K562 cells assessed as accumulation at G2/M phase at 7.8 uM after 6 hrs by propidium iodide staining-based FACS analysis; type: functional
[6] = Cytotoxicity against human PMBC after 48 hrs by modified MTT assay
[7] = test system: K562; experiment: Induction of apoptosis in human K562 cells assessed as chromatin condensation at 7.8 uM after 12 to 24 hrs by TUNEL assay; type: functional, cell-based
[8] = test system: K562; experiment: Induction of apoptosis in human K562 cells assessed as increase in effector caspases activity using Ac-DEVD-AMC as substrate after 3 to 24 hrs by fluorimetry; type: functional, cell-based
[9] = test system: K562; experiment: Cytotoxicity against human K562 cells after 48 hrs by modified MTT assay; type: functional, cell-based; conditions: K562, 48 h
[10] = test system: K562; experiment: Induction of apoptosis in human K562 cells assessed as subdiploid peak at 7.8 uM after 12 to 24 hrs by propidium iodide staining-based FACS analysis; type: functional, cell-based
[11] = test system: K562; experiment: Induction of apoptosis in human K562 cells assessed as effector caspases activity using Ac-DEVD-AMC as substrate after 48 hrs by fluorimetry; type: functional, cell-based
[12] = test system: K562; experiment: Ratio of IC50 for human PMBC to IC50 for human K562 cells
[13] = test system: K562; experiment: Induction of apoptosis in human K562 cells assessed as DNA fragmentation at 7.8 uM after 12 to 24 hrs by TUNEL assay; type: functional, cell-based

Row | Structure (SMILES) | Activity [1] | Activity [2] | Activity [3] | Activity [4] | Activity [5] | IC50 [6] | Activity [7] | Activity [8] | IC50 [9] | Activity [10] | Activity [11] | Ratio IC50 [12] | Activity [13]
1 | CC(=O)O[C@H]1C(=O)[C@@]2(C)[C@H]([C@H](OC(=O)c3ccccc3)[C@]3(O)C[C@H](OC(=O)[C@H](O)[C@@H](NC(=O)c4ccccc4)c4ccccc4)C(C)=C1C3(C)C)[C@]1(OC(C)=O)CO[C@@H]1C[C@@H]2O | Active | Active | Active | Active |  |  |  |  |  |  |  |  | 
2 | CCN(CC)CCCNc1nc2c(Nc3cccc(Cl)c3)c3ccccc3nc2s1 |  |  |  |  | Active | 28.7 µM | Active | Active | 7.82 µM | Active | inactive | 4 | Active
